Several values for one entry are separate records, joined by “and”; a condition that tells them apart may be missing. Equal entries are not always repeated.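 Grown in 96-well plates, cells were treated for 48 hours with each compound at five concentrations. Insufficient inhibition: endpoint recorded as highest concentration tested. GI50 = concentration required for 50% inhibition of growth. Definition used: TGI = concentration required for complete inhibition of growth.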
Legend:
Assay in all cases: NCI-60 cell line screen, 48 h
DMS 273 small cell lung = tested on: DMS 273 small cell lung
EKVX NSCLC = tested on: EKVX NSCLC
HOP-18 NSCLC = tested on: HOP-18 NSCLC
IGROV1 ovarian = tested on: IGROV1 ovarian
LXFL 529 NSCLC = tested on: LXFL 529 NSCLC
NCI-H226 lung = tested on: NCI-H226 lung
NCI-H23 lung = tested on: NCI-H23 lung
RXF-631 renal = tested on: RXF-631 renal
SK-MEL-5 melanoma = tested on: SK-MEL-5 melanoma
SNB-19 CNS = tested on: SNB-19 CNS
XF 498 CNS = tested on: XF 498 CNS
T-47D breast = tested on: T-47D breast

Row | SMILES | TGI (DMS 273 small cell lung) | TGI (EKVX NSCLC) | TGI (HOP-18 NSCLC) | TGI (IGROV1 ovarian) | TGI (LXFL 529 NSCLC) | TGI (NCI-H226 lung) | TGI (NCI-H23 lung) | TGI (RXF-631 renal) | TGI (SK-MEL-5 melanoma) | TGI (SNB-19 CNS) | TGI (XF 498 CNS) | TGI (T-47D breast) | GI50 (EKVX NSCLC) | GI50 (IGROV1 ovarian) | GI50 (LXFL 529 NSCLC) | GI50 (NCI-H226 lung) | GI50 (NCI-H23 lung) | GI50 (SK-MEL-5 melanoma) | GI50 (SNB-19 CNS) | GI50 (T-47D breast)
1 | CC(=O)NNc1nc(C)c(C(=O)NNC(=O)C(=O)Nc2ccccc2C#N)s1 | > 100 µM | > 100 µM | > 100 µM | > 100 µM | > 100 µM | > 100 µM | > 100 µM | > 100 µM | > 100 µM | > 100 µM | – | – | – | – | – | – | – | – | – | –
2 | N#CC(C(=O)/C(=N/NC(=O)c1ccccc1O)C(C#N)c1ccc(Cl)cc1)c1ccc(Cl)cc1 (stereo not given) | – | 36.9 µM | 23.6 µM | – | 25.1 µM | 31.8 µM | 23.7 µM | – | – | 30.2 µM | 26.3 µM | – | – | – | – | – | – | – | – | –
3 | CNS(=O)(=O)NN(C)S(=O)(=O)c1ccc(F)cc1 | > 100 µM | > 100 µM | > 100 µM | > 100 µM | > 100 µM | > 100 µM | > 100 µM | – | > 100 µM | > 100 µM | > 100 µM | – | – | – | – | – | – | – | – | –
4 | Cc1cc(N(CCC#N)S(=O)(=O)c2ccccc2)ccc1/C=C1N=C(/C=C/c2ccccc2)OC\1=O | > 100 µM | > 100 µM | – | > 100 µM | > 100 µM | > 100 µM | > 100 µM | – | > 100 µM | > 100 µM | > 100 µM | – | – | – | – | – | – | – | – | –
5 | COc1cccc(NC(=O)CC(=O)N2N=C(N(CCC#N)c3ccc(Cl)cc3)CC2c2ccccc2)c1 (stereo not given) | > 100 µM | > 100 µM | > 100 µM | > 100 µM | > 100 µM | > 100 µM | > 100 µM | – | > 100 µM | > 100 µM | – | – | – | – | – | – | – | – | – | –
6 | Cc1cccc(NC(=O)CC(=O)N2N=C(N(CCC#N)c3ccc(Cl)cc3)CC2c2ccccc2)c1 (stereo not given) | > 100 µM | – | > 100 µM | > 100 µM | > 100 µM | – | > 100 µM | > 100 µM | > 100 µM | > 100 µM | > 100 µM | – | – | – | – | – | – | – | – | –
7 | COc1ccc2c(c1)C(O)(C(F)(F)F)c1cc(C(=O)C(F)(F)F)c3ccccc3c1N2 (stereo not given) | 23.1 µM | 34.1 µM | 33.3 µM | 27.9 µM | 22 µM | 28 µM | 25.6 µM | 34.6 µM | 26.6 µM | 29.5 µM | – | – | – | – | – | – | – | – | – | –
8 | C[N+](C)(C)CC(=O)N/N=C(/Cc1nc2c3c(ccc2[nH]c1=O)C(=O)c1ccccc1C3=O)C(=O)Nc1ccc(Cl)c(Cl)c1 | – | > 100 µM | – | > 100 µM | – | – | > 100 µM | > 100 µM | > 100 µM | – | – | – | – | – | – | – | – | – | – | –
9 | C=CCC1([C@H](C)[C@@H](OC(C)=O)c2cc(OC)c(OC)c(OC)c2)C[C@@H](OC)CCC1=O (stereo not given in full) | – | 76.2 µM | – | 33.5 µM | 31.2 µM | 44.2 µM | 22.8 µM | – | > 100 µM | – | 32.9 µM | – | – | – | – | – | – | – | – | –
10 | CC(=O)NC(CCCNCc1ccccc1)C(=O)NCc1ccccc1 (stereo not given) | > 100 µM | > 100 µM | – | > 100 µM | > 100 µM | > 100 µM | > 100 µM | > 100 µM | > 100 µM | > 100 µM | > 100 µM | – | – | – | – | – | – | – | – | –
11 | CCCCOc1ccc(NC(N)=Nc2ccc(Cl)cc2)cc1 | – | 14.7 µM | – | 21.3 µM | – | 29 µM | 17.3 µM | – | 2.1 µM | 20 µM | – | 18.9 µM | – | – | – | – | – | – | – | –
12 | O=C([O-])c1ccccc1Nc1ccccn1.O=C([O-])c1ccccc1Nc1ccccn1.[Ni+2] | – | > 100 µM | – | > 100 µM | > 100 µM | > 100 µM | > 100 µM | – | > 100 µM | > 100 µM | – | – | 31.8 µM | > 100 µM | 55.2 µM | 33.9 µM | > 100 µM | 73.9 µM | > 100 µM | –
13 | COC(=O)[C@]12CC[C@@H](C)[C@H](C)[C@@H]1C1=CC[C@@H]3[C@@]4(C)C[C@@H](OC(C)=O)[C@H](O)[C@@](C)(COC(C)=O)[C@@H]4[C@H](O)C[C@@]3(C)[C@]1(C)CC2 | – | 6.69 µM | – | 4.81 µM | – | 8.54 µM | 8.44 µM | – | 3.66 µM | – | – | 8.02 µM | 2.22 µM | 1.87 µM | – | 3.19 µM | 2.73 µM | 1.78 µM | 2.78 µM | 2.44 µM
14 | CC1=NCCc2c1[nH]c1cc(O)ccc21 | – | > 100 µM | > 100 µM | > 100 µM | > 100 µM | > 100 µM | > 100 µM | > 100 µM | > 100 µM | > 100 µM | > 100 µM | – | – | – | – | – | – | – | – | –
15 | COc1cccc(/C=C/C(=O)c2cccc(Nc3nc(Nc4ccccc4)nc(Nc4ccccc4)n3)c2)c1 | – | > 78.6 µM | – | 33.2 µM | – | > 67.9 µM | > 100 µM | – | > 77.1 µM | > 100 µM | – | > 79.8 µM | > 20.2 µM | 5.47 µM | – | 24.2 µM | 21.3 µM | 13 µM | > 56.9 µM | 6.15 µM
16 | Cc1occc1C(=S)Nc1ccc(Cl)c(COC(C)(C)C)c1 | – | 37.1 µM | – | 31 µM | – | 34.2 µM | 35.7 µM | – | 33.4 µM | 48.2 µM | – | 26.9 µM | – | – | – | – | – | – | – | –
17 | CC/C=C\C=C/C(=O)N/C=C/CC1Cc2cccc(O)c2C(=O)O1 (stereo not given) | – | > 100 µM | – | > 100 µM | – | > 100 µM | > 100 µM | – | 27.3 µM | > 100 µM | – | > 100 µM | 38.8 µM | 38 µM | – | 39.6 µM | 58.1 µM | 5.63 µM | 32.9 µM | 36.1 µM
18 | COc1cc(C2c3cc4c(cc3OC(N3CCCC3)C2C)OCO4)cc(OC)c1OC (stereo not given) | – | > 95.5 µM | – | 30.2 µM | – | 3.19 µM | 7.27 µM | – | 5.06 µM | 15.4 µM | – | > 100 µM | – | – | – | – | – | – | – | –
19 | COc1ccccc1NC(=O)C1=C(C)NC(C)=C(C(=O)Nc2ccccc2OC)C1c1ccccc1F | > 100 µM | > 100 µM | > 100 µM | > 100 µM | > 100 µM | > 100 µM | > 100 µM | > 100 µM | > 100 µM | > 100 µM | – | – | – | – | – | – | – | – | – | –
20 | CC(C)NC[C@@H](C(=O)N1CCN(c2ncnc3c2[C@H](C)C[C@H]3O)CC1)c1ccc(Cl)cc1 | – | > 10 µM | – | 0.731 µM and 3.02 µM | – | > 100 µM | > 100 µM | – | > 100 µM | > 89.5 µM | – | – | > 10 µM | 0.156 µM and 0.203 µM | – | 5.16 µM and 13.3 µM | > 10 µM and 31.2 µM | > 10 µM and 27.8 µM | 1.64 µM and 1.38 µM | 0.208 µM and 0.236 µM

From PubChem BioAssay (NCI)
